Laboratory results taken from PMC3433420 (PLoS ONE, 2012).
Residues, ends and D or L forms follow the SMILES beside them.

Assays:
Assay in all cases: In-house protein microarrays (with or without 5 mM DTT), protein named per line
Assay type in all cases: binding
SH2 and PTB domains [1] = target: T1, SH2 and PTB domains (Homo sapiens, UniProt P12931); settings: protein SRC
T1 construct: thioredoxin; made in house; host or cells: BL21(DE3)pLysS E. coli
Outline: (§1)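 Recombinant domains (~40 µM) spotted in duplicate on aldehyde slides, quenched 1 h at room temperature in HEPES/KCl/Tween-20 buffer pH 7.8 with 5 mM DTT and 1% BSA, then probed with rhodamine-labeled peptide. Thioredoxin-subtracted mean fluorescence fitted for KD.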

SH2 and PTB domains [2] = target: T2, SH2 and PTB domains (Homo sapiens, UniProt P16885); settings: array fabrication # 39329
T2 construct: thioredoxin; made in house; host or cells: BL21(DE3)pLysS E. coli
T2 sequence (P16885 1-1265): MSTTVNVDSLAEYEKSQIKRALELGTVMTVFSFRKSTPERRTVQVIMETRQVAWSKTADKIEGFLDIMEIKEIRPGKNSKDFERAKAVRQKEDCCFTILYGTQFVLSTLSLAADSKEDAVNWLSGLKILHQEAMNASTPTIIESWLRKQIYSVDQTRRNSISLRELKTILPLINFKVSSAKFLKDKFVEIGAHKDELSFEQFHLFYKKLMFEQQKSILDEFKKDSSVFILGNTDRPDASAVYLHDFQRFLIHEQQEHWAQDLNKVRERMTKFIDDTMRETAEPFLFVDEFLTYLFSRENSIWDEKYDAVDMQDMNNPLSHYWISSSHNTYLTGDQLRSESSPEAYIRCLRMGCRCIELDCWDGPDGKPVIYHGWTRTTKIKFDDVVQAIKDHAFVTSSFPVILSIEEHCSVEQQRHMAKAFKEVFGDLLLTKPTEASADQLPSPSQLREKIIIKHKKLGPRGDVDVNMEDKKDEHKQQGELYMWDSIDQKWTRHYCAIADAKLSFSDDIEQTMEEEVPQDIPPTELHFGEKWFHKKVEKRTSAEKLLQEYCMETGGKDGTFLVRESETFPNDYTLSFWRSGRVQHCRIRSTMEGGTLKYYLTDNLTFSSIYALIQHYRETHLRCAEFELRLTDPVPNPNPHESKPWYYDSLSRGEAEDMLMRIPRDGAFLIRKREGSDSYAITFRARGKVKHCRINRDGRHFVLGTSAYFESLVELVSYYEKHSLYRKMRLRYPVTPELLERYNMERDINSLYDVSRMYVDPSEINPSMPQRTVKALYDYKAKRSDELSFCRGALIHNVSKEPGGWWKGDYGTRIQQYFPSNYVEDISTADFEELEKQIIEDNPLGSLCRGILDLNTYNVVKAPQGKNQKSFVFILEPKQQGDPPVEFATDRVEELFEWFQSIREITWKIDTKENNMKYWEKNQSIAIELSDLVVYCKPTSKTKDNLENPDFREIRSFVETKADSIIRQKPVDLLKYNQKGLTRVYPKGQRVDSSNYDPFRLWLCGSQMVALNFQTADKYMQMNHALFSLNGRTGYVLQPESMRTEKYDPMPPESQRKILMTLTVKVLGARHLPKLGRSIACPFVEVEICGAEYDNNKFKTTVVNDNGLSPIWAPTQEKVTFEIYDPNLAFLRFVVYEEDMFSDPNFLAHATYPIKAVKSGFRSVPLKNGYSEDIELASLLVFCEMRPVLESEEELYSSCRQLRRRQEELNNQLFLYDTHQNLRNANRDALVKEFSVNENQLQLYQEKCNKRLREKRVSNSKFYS
Outline: as §1

SH2 and PTB domains [3] = target: T3, SH2 and PTB domains (Homo sapiens, UniProt P43405); settings: array fabrication # 39329
T3 construct: thioredoxin; made in house; host or cells: BL21(DE3)pLysS E. coli
Outline: as §1

SH2 and PTB domains [4] = target: T4, SH2 and PTB domains (Homo sapiens, UniProt Q9BRG2); settings: protein SH2D3A, array fabrication # 39329
T4 construct: thioredoxin; made in house; host or cells: BL21(DE3)pLysS E. coli
Outline: as §1

SH2 and PTB domains [5] = target: T5, SH2 and PTB domains (Homo sapiens, UniProt O00459); settings: protein PIK3R2-N, array fabrication # 39329
T5 construct: thioredoxin; made in house; host or cells: BL21(DE3)pLysS E. coli
Outline: as §1

SH2 and PTB domains [6] = target: T6, SH2 and PTB domains (Homo sapiens, UniProt O43639); settings: protein NCK2, array fabrication # 39329
T6 construct: thioredoxin; made in house; host or cells: BL21(DE3)pLysS E. coli
Outline: as §1

SH2 and PTB domains [7] = target: T7, SH2 and PTB domains (Homo sapiens, UniProt P51451); settings: protein BLK
T7 construct: thioredoxin; made in house; host or cells: BL21(DE3)pLysS E. coli
Outline: as §1

SH2 and PTB domains [8] = target: T8, SH2 and PTB domains (Homo sapiens, UniProt Q92569)
T8 construct: thioredoxin; made in house; host or cells: BL21(DE3)pLysS E. coli
Outline: as §1

[9] = protein PLCG2-NC, PM assay replicate # 39336
[10] = protein SYK-N, PM assay replicate # 39336
[11] = protein SYK-NC, PM assay replicate # 39336
[12] = PM assay replicate # 39336, array fabrication # 39329
[13] = PM assay replicate # 39337, array fabrication # 39329
[14] = PM assay replicate # 39603, array fabrication # 39392

T7 sequence (P51451 whole entry, the tested form may be a part): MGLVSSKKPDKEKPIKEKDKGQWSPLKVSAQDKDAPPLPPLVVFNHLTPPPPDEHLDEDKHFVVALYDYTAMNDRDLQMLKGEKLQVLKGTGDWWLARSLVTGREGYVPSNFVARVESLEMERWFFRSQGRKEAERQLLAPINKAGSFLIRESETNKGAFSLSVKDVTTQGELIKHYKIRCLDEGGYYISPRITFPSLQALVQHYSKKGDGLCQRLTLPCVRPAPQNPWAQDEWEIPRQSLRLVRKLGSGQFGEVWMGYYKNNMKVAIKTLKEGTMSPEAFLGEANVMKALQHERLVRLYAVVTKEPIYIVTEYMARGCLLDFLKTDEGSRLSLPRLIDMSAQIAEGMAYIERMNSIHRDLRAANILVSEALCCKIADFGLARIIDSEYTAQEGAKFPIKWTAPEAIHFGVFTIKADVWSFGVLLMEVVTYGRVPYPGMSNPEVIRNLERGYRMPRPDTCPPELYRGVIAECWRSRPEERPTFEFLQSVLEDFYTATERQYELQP
T1 sequence (P12931 whole entry, the tested form may be a part): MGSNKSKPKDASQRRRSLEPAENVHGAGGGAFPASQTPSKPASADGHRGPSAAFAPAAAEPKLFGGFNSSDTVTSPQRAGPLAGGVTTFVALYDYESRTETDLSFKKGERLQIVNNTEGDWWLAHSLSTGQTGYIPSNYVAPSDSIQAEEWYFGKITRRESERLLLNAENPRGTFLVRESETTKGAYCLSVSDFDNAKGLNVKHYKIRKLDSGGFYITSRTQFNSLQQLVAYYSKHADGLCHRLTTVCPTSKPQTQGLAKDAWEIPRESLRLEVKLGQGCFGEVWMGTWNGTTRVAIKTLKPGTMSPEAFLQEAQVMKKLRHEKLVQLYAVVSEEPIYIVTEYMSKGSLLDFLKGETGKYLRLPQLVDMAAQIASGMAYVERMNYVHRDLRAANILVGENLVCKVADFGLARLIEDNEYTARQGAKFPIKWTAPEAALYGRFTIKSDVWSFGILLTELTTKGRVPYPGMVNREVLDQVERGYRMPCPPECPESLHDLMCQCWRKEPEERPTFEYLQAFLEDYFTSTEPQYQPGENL
T5 sequence (O00459 whole entry, the tested form may be a part): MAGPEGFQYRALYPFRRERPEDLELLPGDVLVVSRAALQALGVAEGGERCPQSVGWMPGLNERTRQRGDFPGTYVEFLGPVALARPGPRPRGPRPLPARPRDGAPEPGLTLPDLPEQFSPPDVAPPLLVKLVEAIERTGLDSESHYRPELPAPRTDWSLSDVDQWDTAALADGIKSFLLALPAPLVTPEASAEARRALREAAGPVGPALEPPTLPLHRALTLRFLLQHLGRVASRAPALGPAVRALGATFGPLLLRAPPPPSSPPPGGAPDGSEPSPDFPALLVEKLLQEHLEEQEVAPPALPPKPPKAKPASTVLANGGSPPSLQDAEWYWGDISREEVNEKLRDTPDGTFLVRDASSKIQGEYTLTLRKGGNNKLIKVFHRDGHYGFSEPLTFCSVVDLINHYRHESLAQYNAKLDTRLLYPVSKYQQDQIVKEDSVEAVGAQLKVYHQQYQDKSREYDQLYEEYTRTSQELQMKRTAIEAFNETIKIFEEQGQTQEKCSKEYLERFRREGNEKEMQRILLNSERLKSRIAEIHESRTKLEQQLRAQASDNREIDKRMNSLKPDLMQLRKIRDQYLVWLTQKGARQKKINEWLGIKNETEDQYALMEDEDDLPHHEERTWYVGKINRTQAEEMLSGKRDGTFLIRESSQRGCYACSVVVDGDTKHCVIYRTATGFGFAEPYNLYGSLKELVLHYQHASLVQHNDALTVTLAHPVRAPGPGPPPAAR
T6 sequence (O43639 whole entry, the tested form may be a part): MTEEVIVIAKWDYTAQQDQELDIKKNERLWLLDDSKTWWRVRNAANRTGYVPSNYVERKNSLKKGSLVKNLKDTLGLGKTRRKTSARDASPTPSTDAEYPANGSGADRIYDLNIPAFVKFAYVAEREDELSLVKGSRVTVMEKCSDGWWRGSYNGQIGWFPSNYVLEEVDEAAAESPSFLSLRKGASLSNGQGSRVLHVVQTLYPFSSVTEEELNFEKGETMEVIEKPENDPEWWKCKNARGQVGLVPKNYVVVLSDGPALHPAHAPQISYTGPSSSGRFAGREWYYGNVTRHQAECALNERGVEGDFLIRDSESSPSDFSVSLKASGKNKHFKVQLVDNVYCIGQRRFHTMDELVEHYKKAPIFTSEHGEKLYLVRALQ
T4 sequence (Q9BRG2 whole entry, the tested form may be a part): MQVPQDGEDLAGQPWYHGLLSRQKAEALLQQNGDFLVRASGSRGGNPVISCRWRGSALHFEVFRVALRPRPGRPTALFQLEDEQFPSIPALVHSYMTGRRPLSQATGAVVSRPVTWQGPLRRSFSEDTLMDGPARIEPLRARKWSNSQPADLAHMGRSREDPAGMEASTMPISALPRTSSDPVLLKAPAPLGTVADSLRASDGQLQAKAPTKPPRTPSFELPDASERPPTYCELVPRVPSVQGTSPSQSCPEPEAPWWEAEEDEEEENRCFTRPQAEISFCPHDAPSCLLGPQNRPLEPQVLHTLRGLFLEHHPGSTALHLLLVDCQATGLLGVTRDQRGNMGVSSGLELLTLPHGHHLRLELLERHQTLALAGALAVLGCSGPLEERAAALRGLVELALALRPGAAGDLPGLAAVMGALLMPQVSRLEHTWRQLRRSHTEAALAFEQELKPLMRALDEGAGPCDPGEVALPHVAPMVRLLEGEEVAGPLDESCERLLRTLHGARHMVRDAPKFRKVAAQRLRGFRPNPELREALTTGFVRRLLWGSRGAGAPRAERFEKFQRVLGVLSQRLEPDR

SMILES: CC(C)C[C@H](NC(=O)[C@@H]1CCCN1)C(=O)N[C@@H](CCC(N)=O)C(=O)N[C@@H](CCCNC(=N)N)C(=O)N[C@@H](Cc1ccc(OP(=O)(O)O)cc1)C(=O)N[C@@H](CO)C(=O)N[C@@H](CCC(=O)O)C(=O)N[C@@H](CC(=O)O)C(=O)N1CCC[C@H]1C(=O)N[C@H](C(=O)N[C@H](C(=O)N1CCC[C@H]1C(=O)N[C@@H](CC(=O)O)C(=O)O)C(C)C)[C@@H](C)O [ErbB2 pY1112] (HELM PEPTIDE1{P.L.Q.R.[O=C([C@H](Cc1ccc(OP(=O)(O)O)cc1)N[*:1])[*:2]].S.E.D.P.T.V.P.D}$$$$V2.0)
- Kd (SH2 and PTB domains [1]; PM assay replicate # 39331, array fabrication # 39329): 183210 nM
- Kd (SH2 and PTB domains [2]; protein PLCG2-NC, PM assay replicate # 39331): 5530 nM
- Kd (SH2 and PTB domains [2]; [9]): 930 nM
- Kd (SH2 and PTB domains [3]; protein SYK-N, PM assay replicate # 39331): 3620 nM
- Kd (SH2 and PTB domains [3]; [10]): 14580 nM
- Kd (SH2 and PTB domains [3]; protein SYK-NC, PM assay replicate # 39331): 890 nM
- Kd (SH2 and PTB domains [3]; [11]): 800 nM

SMILES: CC(C)C[C@H](NC(=O)[C@@H]1CCCN1C(=O)[C@H](C)NC(=O)[C@@H](NC(=O)[C@H](Cc1ccc(OP(=O)(O)O)cc1)NC(=O)CNC(=O)[C@H](CC(=O)O)NC(=O)[C@@H](NC(=O)[C@@H](N)CCC(=O)O)[C@@H](C)O)C(C)C)C(=O)N[C@H](C(=O)N[C@@H](CS)C(=O)N[C@@H](CO)C(=O)N[C@@H](CC(=O)O)C(=O)O)[C@@H](C)O [ErbB2 pY1127]
- Kd (SH2 and PTB domains [1]; [12]): 35 nM
- Kd (SH2 and PTB domains [1]; [13]): 380 nM
- Kd (SH2 and PTB domains [1]; [14]): 250 nM
- Kd (SH2 and PTB domains [4]; PM assay replicate # 39336): 150 nM
- Kd (SH2 and PTB domains [4]; PM assay replicate # 39337): 1150 nM
- Kd (SH2 and PTB domains [2]; protein PLCG2-N, PM assay replicate # 39337): 4160 nM
- Kd (SH2 and PTB domains [2]; [9]): 1600 nM
- Kd (SH2 and PTB domains [2]; protein PLCG2-NC, PM assay replicate # 39337): 580 nM
- Kd (SH2 and PTB domains [5]; PM assay replicate # 39336): 40 nM
- Kd (SH2 and PTB domains [5]; PM assay replicate # 39337): 150 nM
- Kd (SH2 and PTB domains [3]; protein SYK-C, PM assay replicate # 39336): 2390 nM
- Kd (SH2 and PTB domains [3]; protein SYK-C, PM assay replicate # 39337): 1920 nM
- Kd (SH2 and PTB domains [3]; [10]): 2330 nM
- Kd (SH2 and PTB domains [3]; protein SYK-N, PM assay replicate # 39337): 3210 nM
- Kd (SH2 and PTB domains [3]; [11]): 1300 nM
- Kd (SH2 and PTB domains [3]; protein SYK-NC, PM assay replicate # 39337): 960 nM
- Kd (SH2 and PTB domains [6]; PM assay replicate # 39336): 1560 nM
- Kd (SH2 and PTB domains [6]; PM assay replicate # 39337): 460 nM
- Kd (SH2 and PTB domains [7]; [12]): 3200 nM
- Kd (SH2 and PTB domains [7]; [13]): 460 nM
- Kd (SH2 and PTB domains [7]; [14]): 2000 nM
- Kd (SH2 and PTB domains [8]; protein PIK3R3-C, PM assay replicate # 39336, array fabrication # 39329): 1210 nM
- Kd (SH2 and PTB domains [8]; protein PIK3R3-C, PM assay replicate # 39337, array fabrication # 39329): 2040 nM
- Kd (SH2 and PTB domains [8]; protein PIK3R3-N, PM assay replicate # 39336, array fabrication # 39329): 6.98 nM
- Kd (SH2 and PTB domains [8]; protein PIK3R3-N, PM assay replicate # 39337, array fabrication # 39329): 75.8 nM
- Kd (SH2 and PTB domains [8]; protein PIK3R3-NC, PM assay replicate # 39336, array fabrication # 39329): 100 nM
- Kd (SH2 and PTB domains [8]; protein PIK3R3-NC, PM assay replicate # 39337, array fabrication # 39329): 15.1 nM
- Kd (SH2 and PTB domains [8]; protein PIK3R3-NC, PM assay replicate # 39603, array fabrication # 39392): 50 nM
